Laboratory results as given in ChEMBL document CHEMBL5532656, “Novel ligustilide derivatives target quorum sensing system LasR/LasB and relieve inflammatory response against Pseudomonas aeruginosa infection” (Eur J Med Chem, 2024).

experiment: Inhibition of quorum sensing system in Pseudomonas aeruginosa PAO1-lasB-gfp at 10 uM relative to control

Compound | inhibition
CCCCC1(O)C2=C(C=CCC2)C(=O)N1CCC (configuration not stated) | 21.1%
CCCCC1(O)C2=C(C=CCC2)C(=O)N1Cc1ccco1 (configuration not stated) | 33.9%
CCCCC1(O)C2=C(C=CCC2)C(=O)N1c1ccccc1 (configuration not stated) | 15.1%
C#CCN1C(=O)C2=C(CCC=C2)C1(O)CCCC (configuration not stated) | 21.5%
CCCCC1(O)C2=C(C=CCC2)C(=O)N1CC (configuration not stated) | 17.4%
CCCCCN1C(=O)C2=C(CCC=C2)C1(O)CCCC (configuration not stated) | 21.2%
CCCCC1(O)C2=C(C=CCC2)C(=O)N1c1ncccn1 (configuration not stated) | 35.5%
CCCCC1(O)C2=C(C=CCC2)C(=O)N1CCc1ccccc1 (configuration not stated) | 11.6%
CCCCC1(O)C2=C(C=CCC2)C(=O)N1C1CCCC1 (configuration not stated) | 16.7%
CCCCC1(O)C2=C(C=CCC2)C(=O)N1CCCCc1ccccc1 (configuration not stated) | 18.1%
CCCCN1C(=O)C2=C(CCC=C2)C1(O)CCCC (configuration not stated) | 21.6%
CCCCC1(O)C2=C(C=CCC2)C(=O)N1CCc1c[nH]c2ccc(O)cc12 (configuration not stated) | 37.7%
CCCCC1(O)C2=C(C=CCC2)C(=O)N1Cc1cccs1 (configuration not stated) | 29.7%
CCCCC1(O)C2=C(C=CCC2)C(=O)N1C1CC1 (configuration not stated) | 20.4%
CCCCC1(O)C2=C(C=CCC2)C(=O)N1Cc1ccccc1C(F)(F)F (configuration not stated) | 45.1%
CCCCC1(O)C2=C(C=CCC2)C(=O)N1Cc1cccc(-c2ccccc2)c1 (configuration not stated) | 32.9%
CCCCC1(O)C2=C(C=CCC2)C(=O)N1C1CCCCC1 (configuration not stated) | 16.4%
CCCCC1(O)C2=C(C=CCC2)C(=O)N1CCc1c[nH]c2ccc(OC)cc12 (configuration not stated) | 30.6%

Other lines, results leading:

inhibition | Compound
40.7% | CCCCC1(O)C2=C(C=CCC2)C(=O)N1Cc1ccc(C(C)C)cc1 (configuration not stated)
40.7% | CCCCC1(O)C2=C(C=CCC2)C(=O)N1Cc1ccc(OC)cc1 (configuration not stated)
40.5% | CCCCC1(O)C2=C(C=CCC2)C(=O)N1Cc1ccc(OCC)cc1 (configuration not stated)
39.4% | CCCCC1(O)C2=C(C=CCC2)C(=O)N1Cc1cccc(C(F)(F)F)c1 (configuration not stated)
35.3% | CCCCC1(O)C2=C(C=CCC2)C(=O)N1Cc1ccc(N(C)C)cc1 (configuration not stated)
34.2% | CCCCC1(O)C2=C(C=CCC2)C(=O)N1Cc1cccc(Cl)c1 (configuration not stated)
40.4% | CCCCC1(O)C2=C(C=CCC2)C(=O)N1Cc1ccccc1F (configuration not stated)
40.2% | CCCCC1(O)C2=C(C=CCC2)C(=O)N1Cc1ccc(O)cc1 (configuration not stated)
29.4% | CCCCC1(O)C2=C(C=CCC2)C(=O)N1Cc1cccc(OC)c1 (configuration not stated)
47.4% | CCCCC1(O)C2=C(C=CCC2)C(=O)N1Cc1ccc(Cl)cc1 (configuration not stated)
44.3% | CCCCC1(O)C2=C(C=CCC2)C(=O)N1Cc1ccc(C#N)cc1 (configuration not stated)
41% | CCCCC1(O)C2=C(C=CCC2)C(=O)N1Cc1cccc(F)c1 (configuration not stated)
43.8% | CCCCC1(O)C2=C(C=CCC2)C(=O)N1Cc1ccc(-c2ccccc2)cc1 (configuration not stated)
31.9% | CCCCC1(O)C2=C(C=CCC2)C(=O)N1Cc1cccnc1 (configuration not stated)
36.3% | CCCCC1(O)C2=C(C=CCC2)C(=O)N1Cc1ccccc1OC (configuration not stated)
45.2% | CCCCC1(O)C2=C(C=CCC2)C(=O)N1Cc1ccc(Br)cc1 (configuration not stated)
41.5% | CCCCC1(O)C2=C(C=CCC2)C(=O)N1Cc1ccc(F)cc1 (configuration not stated)
37.6% | CCCCC1(O)C2=C(C=CCC2)C(=O)N1Cc1ccccc1Cl (configuration not stated)
41.5% | CCCCC1(O)C2=C(C=CCC2)C(=O)N1Cc1ccc(C)cc1 (configuration not stated)
